Measured values: the SangsterLogP compilation

Test: method code SF-GLC, from DOI: 10.1016/s0045-6535(99)00157-5

Structure (SMILES)	logP
CC1(CCl)C2CC(Cl)(Cl)C1(C(Cl)Cl)CC2Cl (stereo not drawn)	5.49
ClCC1(C(Cl)Cl)C(=C(Cl)Cl)C2CC1C(Cl)(Cl)C2Cl (stereo not drawn)	5.49
ClCC1(CCl)C(=C(Cl)Cl)C2CC1C(Cl)(Cl)C2Cl (stereo not drawn)	5.44
ClCC1(C(Cl)Cl)C2CC(Cl)C1(C(Cl)Cl)CC2(Cl)Cl (stereo not drawn)	5.75
ClC[C@@]1(C(Cl)Cl)C2[C@@H](Cl)[C@H](Cl)C1(C(Cl)Cl)[C@@H](Cl)[C@@H]2Cl	5.89
ClC=C1C2CC(C1(CCl)CCl)C(Cl)(Cl)C2Cl (stereo not drawn)	5.2
ClC=C1C2C(Cl)C(Cl)C(C2Cl)C1(CCl)CCl (stereo not drawn)	5.35
ClCC1(C(Cl)Cl)C2C(Cl)CC1(C(Cl)Cl)C(Cl)C2Cl (stereo not drawn)	5.19
CC1(C(Cl)Cl)C2C(Cl)C(Cl)C1(C(Cl)Cl)C(Cl)C2Cl (stereo not drawn)	5.52
ClCC12CCC(C(Cl)C1(Cl)Cl)C2(C(Cl)Cl)C(Cl)Cl (stereo not drawn)	5.49
ClCC1(C(Cl)Cl)C2CC(Cl)(Cl)C1(C(Cl)Cl)C(Cl)C2Cl (stereo not drawn)	5.8

Now from value to compound:

logP	Structure (SMILES)
5.74	ClCC1(CCl)C2C(Cl)C(Cl)C1(CCl)C(Cl)(Cl)C2Cl (stereo not drawn)
5.23	ClCC1(CCl)[C@H]2CC(Cl)(Cl)[C@]1(CCl)[C@@H](Cl)[C@@H]2Cl
6.26	ClCC1(CCl)C2C(Cl)C(Cl)(Cl)C1(C(Cl)Cl)CC2(Cl)Cl (stereo not drawn)
5.57	ClCC1(CCl)C2[C@@H](Cl)[C@H](Cl)C1(C(Cl)Cl)[C@@H](Cl)[C@@H]2Cl
6.64	ClC[C@@]1(C(Cl)Cl)[C@@H]2CC(Cl)(Cl)[C@@]1(C(Cl)Cl)[C@H](Cl)C2(Cl)Cl
5.9	C[C@]1(C(Cl)Cl)[C@H]2CC(Cl)(Cl)[C@]1(C(Cl)Cl)CC2(Cl)Cl
5.96	ClCC1(C(Cl)Cl)C2CC(Cl)(Cl)C1(C(Cl)Cl)CC2(Cl)Cl (stereo not drawn)
